Data published in patent US20230210867A1, “TREATMENT OF ADJUSTMENT DISORDERS” (VISTAGEN THERAPEUTICS, INC., priority 2020, published 2023).

Assays:
[1] = tested on: symptoms of social anxiety disorder (SAD); settings: earlier clinical studies; cited from earlier work
[2] = all clinical studies to date; cited from earlier work
[3] = tested on: Adjustment Disorder with Anxiety (AjDA) symptoms in adults; assay: Phase 2A clinical trial of PH94B neuroactive nasal spray in Adjustment Disorder with Anxiety (AjDA); assay type: in vivo, human; settings: adult subjects with AjDA, compared to placebo
Description: A clinical trial is designed and conducted to evaluate the efficacy, safety and tolerability of daily administration of PH94B neuroactive nasal spray (Example 1) as a treatment of Adjustment Disorder with Anxiety (AjDA) symptoms in adults, associated with identifiable stressors related to the COVID-19 pandemic. Subject are confirmed with current diagnoses of this condition as defined in the Diagnostic and Statistical Manual of Mental Disorders, 5th Edition (DSM-5).
The PH94B study drug is delivered intranasally with the nozzle of the applicator positioned in the nasal vestibule and directed toward the midline (medial part or nasal septum). In order to administer study medication, the actuator (pusher) should be depressed.
Prior to the use of a new study medication bottle, the subject is instructed to shake the bottle five times and to prime the bottle by depressing the actuator five times. […]
1. Individual subject improvement as assessed by the Sheehan Disability Scale (SDS) at the end of week 4 of treatment with PH94B compared to placebo.
2. Individual subject improvement as assessed by the Clinical Global Impression-Improvement rating (CGI-I). […]
3. Individual subject improvement as assessed by the subject's self-assessment of improvement (PGI-C) at the end of week 4 of treatment with PH94B compared to placebo. […]

Structure (SMILES): C[C@@]12C=CC[C@H]1[C@@H]1CCC3=C[C@@H](O)CC[C@]3(C)[C@H]1CC2 [PH94B, [3β]-androsta-4,16-dien-3-ol]
- efficacy in treating symptoms of social anxiety disorder (SAD) [1]: significant efficacy
- safety in clinical studies [2]: safe
- anxiety levels as measured by the Hamilton Anxiety Scale (HAM-A) ([3]; 3.2 μg intranasal four times per day, four weeks): statistically significant reduction in anxiety levels
- secondary endpoints (SDS, CGI-I, PGI-C, ADNM) ([3]; end of week 4 of treatment): statistically significant improvement
